{"source": "patent US20190101539A1", "about": "“METABOLOMIC BASED BIOMARKERS FOR COLON CANCER DETECTION” (UNIVERSITY OF SOUTHERN CALIFORNIA, priority 2015, published 2019)", "key": {"[1]": {"assay": "Degradation kinetics of FOCM metabolites at storage temperatures, Arrhenius model", "type": "physicochemical", "design": "Ln (K) / Calculated Ln (K) / Calculated K: unit not given here", "conditions": "for Degradation constant, K: first order, days 0-42", "protocol": "This will further enhance the clinical prediction ability. The stability of these plasma vitamin B and folate metabolites were studied to validate the reliability of the assay and the time-dependent effect on the concentration of the analytes in patient samples. Using freshly made samples and assessing their degradation over time, we have established an Arrhenius models that will allow the team to extrapolate the metabolite level over time.\nThe stability of these metabolites were assessed using accelerated stress conditions which involves determining degradation rates of analytes through monitoring changes in time of their concentration in solution at several predetermined storage temperatures and then analyzing the results in terms of the Arrhenius equation: […]\nFor a valid Arrhenius model to be developed, a linear plot determining the degradation rate of analyte at given storage temperatures against reciprocals of these temperatures is needed. The pre-exponential factor A, which may be obtained by extrapolating the straight line to zero value of the temperature reciprocal, appears to be affected by factors such as exposure to pollution^7 and light^8, relative humidity during the ageing, and the analytes. The activation energy, directly proportional to the slope of the straight line, represents a measure of sensitivity of the degradation rate of the studied property to temperature changes. The degradation rate of the analytes at ambient conditions can be estimated by extrapolating the Arrhenius plot for the analyte concentration to storage temperature. Combined with a kinetic equation describing changes of the concentration with time, this rate may then be used to estimate the life-expectancy of the analytes.\nIn order to estimate the degradation rate constant, k, at the storage temperature of the plasma samples (which is usually −80° C.), a degradation experiment was conducted for FOCM metabolites at ambient temperatures of 37° C., 25° C., 4° C. and −20° C. […] All degradation curves were assumed to be first order. All experimental samples were stored and quantified at days 0, 3, 7, 14, 21, 28 and 42 using the developed LCMS assay. The results below (for 4-pyridoxic acid) are an example of the data obtained for each of the FOCM metabolites."}, "[2]": {"assay": "Evaluation of stabilizing agents for FOCM metabolites", "type": "physicochemical", "conditions": "0.5% ascorbic acid, compared with other stabilizing agents", "source_text": "A major challenge with the FOCM intermediates during storage and analysis is their poor stability. The metabolites may be unstable through environment exposures such as heat, light and/or oxygen, thereby posing great challenge to determine the actual concentration of these metabolites at the time of collection. These FOCM intermediates make the metabolomics-based assay a very powerful tool to a more accurate quantification. The instability of these vitamins pose a great challenge due to their poor stability in the presence of metallic ions, oxidative species and light which catalyze most of the degradation reactions. Most of the vitamin B and folate metabolites degrade due as a consequence of photooxidation reactions which becomes a challenge for assay development necessitating the provision of the most suitable conditions for storage and processing of the plasma samples in order to produce a highly sensitive and reliable assay method. In order to address the instability issues during sample processing, the analysis will be conducted on at 4° C. using black eppendorf tubes. […] Consistent metabolites extraction is achieved using protein precipitation approach followed by the supernatant evaporated to dryness under nitrogen. […]"}, "[3]": {"conditions": "−80 °C, extrapolated from Arrhenius model"}}, "data": [{"smiles": "Cc1ncc(CO)c(C(=O)O)c1O", "note": "[4-Pyridoxic acid]", "values": [{"measurement": "Ln (K)", "setting": "[1]; 4 °C", "value": "−4.164"}, {"measurement": "Calculated K", "setting": "[1]; 4 °C, Arrhenius model", "value": 0.014}, {"measurement": "Calculated Ln (K)", "setting": "[1]; 4 °C, Arrhenius model", "value": "−4.302"}, {"measurement": "Degradation constant, K", "setting": "[1]; 4 °C", "value": 0.016}, {"measurement": "Ln (K)", "setting": "[1]; 25 °C", "value": "−4.019"}, {"measurement": "Calculated K", "setting": "[1]; 25 °C, Arrhenius model", "value": 0.019}, {"measurement": "Calculated Ln (K)", "setting": "[1]; 25 °C, Arrhenius model", "value": "−3.977"}, {"measurement": "Degradation constant, K", "setting": "[1]; 25 °C", "value": 0.018}, {"measurement": "Ln (K)", "setting": "[1]; 37 °C", "value": "−3.841"}, {"measurement": "Calculated K", "setting": "[1]; 37 °C, Arrhenius model", "value": 0.022}, {"measurement": "Calculated Ln (K)", "setting": "[1]; 37 °C, Arrhenius model", "value": "−3.810"}, {"measurement": "Degradation constant, K", "setting": "[1]; 37 °C", "value": 0.021}, {"measurement": "A, Arrhenius pre-exponential factor", "setting": "[1]; Arrhenius plot", "value": 1.37}, {"measurement": "Ln(A)", "setting": "[1]; Arrhenius plot intercept", "value": 0.3183}, {"measurement": "Ln (K)", "setting": "[1]; −20 °C", "value": "−4.806"}, {"measurement": "Calculated K", "setting": "[1]; −20 °C, Arrhenius model", "value": 0.009}, {"measurement": "Calculated Ln (K)", "setting": "[1]; −20 °C, Arrhenius model", "value": "−4.741"}, {"measurement": "Degradation constant, K", "setting": "[1]; −20 °C", "value": 0.008}, {"measurement": "Calculated K", "setting": "[1]; [3]", "value": 0.002}, {"measurement": "Calculated Ln (K)", "setting": "[1]; [3]", "value": "−6.313"}, {"measurement": "E, activation energy", "setting": "[1]; −slope*R of Arrhenius plot", "value": 10.6, "unit": "KJmol^−1"}]}, {"smiles": "O=C1O[C@H]([C@@H](O)CO)C(O)=C1O", "note": "[ascorbic acid]", "values": [{"measurement": "Stabilization of FOCM metabolites from oxidation", "setting": "[2]", "value": "more effective in stabilizing the FOCM metabolites from oxidation"}]}]}
